In patent US20230049231A1 (priority 2019, published 2023):

target: T1, Kv1.3 potassium channel (Homo sapiens, UniProt P22001); assay: Kv1.3 potassium channel blocker activity, automated whole-cell patch clamp (Patchliner); assay type: cell-based; details: CHO-K1 cells stably expressing Kv1.3; 100 ms pulses from -90 mV to +40 mV, 0.1 Hz
T1 construct: expressed in transfected cells
Procedure: This assay is used to evaluate the disclosed compounds' activities as Kv1.3 potassium channel blockers.
CHO-K1 cells stably expressing Kv1.3 were grown in DMEM containing 10% heat-inactivated FBS, 1 mM sodium pyruvate, 2 mM L-glutamine and G418 (500 μg/ml). Cells were grown in culture flasks at 37° C. in a 5% CO2-humidified incubator.
The cells were bathed in an extracellular solution containing 140 mM NaCl, 4 mM KCl, 2 mM CaCl2), 1 mM MgCl2, 5 mM glucose, and 10 mM HEPES; pH adjusted to 7.4 with NaOH; 295-305 mOsm. The internal solution contained 50 mM KCl, 10 mM NaCl, 60 mM KF, 20 mM EGTA, and 10 mM HEPES; pH adjusted to 7.2 with KOH; 285 mOsm. All compounds were dissolved in DMSO at 30 mM. Compound stock solutions were freshly diluted with external solution to concentrations of 30 nM, 100 nM, 300 nM, 1 μM, 3 μM, 10 μM, 30 μM and 100 μM. The highest content of DMSO (0.3%) was present in 100 μM.
The currents were evoked by applying 100 ms depolarizing pulses from −90 mV (holding potential) to +40 mV were applied with 0.1 Hz frequency. Control (compound-free) and compound pulse trains for each compound concentration applied contained 20 pulses.
10-second breaks were used between pulse trains (see Table 2 below).
Whole-cell current recordings and compound application were enabled by means of an automated patch clamp platform Patchliner (Nanion Technologies GmbH). EPC 10 patch clamp amplifier (HEKA Elektronik Dr. Schulze GmbH) along with Patchmaster software (HEKA Elektronik Dr. Schulze GmbH) was used for data acquisition. Data were sampled at 10 kHz without filtering. Passive leak currents were subtracted online using a P/4 procedure (HEKA Elektronik Dr. Schulze GmbH). Increasing compound concentrations were applied consecutively to the same cell without washouts in between. Total compound incubation time before the next pulse train was not longer than 10 seconds. Peak current inhibition was observed during compound equilibration.
AUC and peak values were obtained with Patchmaster (HEKA Elektronik Dr. Schulze GmbH). To determine IC50, the last single pulse in the pulse train corresponding to a given compound concentration was used. Obtained AUC and peak values in the presence of compound were normalized to control values in the absence of compound. Using Origin (OridinLab), IC50 was derived from data fit to Hill equation: Icompound/Icontrol=(100−A)/(1+([compound]/IC50)nH)+A, where IC50 value is the concentration at which current inhibition is half-maximal, [compound] is the applied compound concentration, A is the fraction of current that is not blocked and nH is the Hill coefficient.

T1 sequence (P22001 whole entry): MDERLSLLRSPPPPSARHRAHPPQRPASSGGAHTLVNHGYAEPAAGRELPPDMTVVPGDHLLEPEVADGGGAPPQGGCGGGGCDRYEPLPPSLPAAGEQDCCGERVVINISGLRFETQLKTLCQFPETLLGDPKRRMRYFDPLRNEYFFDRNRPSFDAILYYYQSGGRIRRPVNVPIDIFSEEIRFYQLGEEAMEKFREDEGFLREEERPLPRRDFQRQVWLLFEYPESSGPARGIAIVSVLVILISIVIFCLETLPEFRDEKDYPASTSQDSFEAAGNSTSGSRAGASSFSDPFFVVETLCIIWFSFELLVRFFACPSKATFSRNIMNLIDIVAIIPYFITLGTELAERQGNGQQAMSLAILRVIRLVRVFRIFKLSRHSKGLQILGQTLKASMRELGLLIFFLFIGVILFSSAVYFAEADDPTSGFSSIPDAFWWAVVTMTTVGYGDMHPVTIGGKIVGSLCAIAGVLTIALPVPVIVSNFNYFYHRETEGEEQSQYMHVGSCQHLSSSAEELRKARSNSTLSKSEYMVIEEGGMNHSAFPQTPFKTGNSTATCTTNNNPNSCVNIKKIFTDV

IC50	SMILES
< 1000 nM	O=C(CO)N1CC(=O)N2C[C@H](c3c(O)ccc(Cl)c3Cl)CC[C@H]2C1 (relative stereo) [Compound 13, (7S,9aS)-rel-7-(2,3-dichloro-6-hydroxyphenyl)-2-(2-hydroxyacetyl)-hexahydro-1H-pyrido[1,2-a]pyrazin-4-one]
< 10000 nM	O=C(CO)N1CC(=O)N2C[C@H](c3c(O)ccc(Cl)c3Cl)CC[C@@H]2C1 (relative stereo) [Compound 26, (7S,9aR)-rel-7-(2,3-dichloro-6-hydroxyphenyl)-2-(2-hydroxyacetyl)-hexahydro-1H-pyrido[1,2-a]pyrazin-4-one]
< 1000 nM	O=C1[C@H](CO)OC[C@@H]2C[C@H](c3c(O)ccc(Cl)c3Cl)CCN12 (single isomer, unassigned) [Compound 43]
< 1000 nM	C[C@@H](CO)C(=O)N1CC(=O)N2CC[C@H](c3c(O)ccc(Cl)c3Cl)C[C@@H]2C1 [Compound 3, (8S,9aR)-8-(2,3-dichloro-6-hydroxyphenyl)-2-((S)-3-hydroxy-2-methylpropanoyl)octahydro-4H-pyrido[1,2-a]pyrazin-4-one]
< 1000 nM	O=C(CO)N1CC(=O)N2CC[C@H](c3c(O)cc(Cl)c(Cl)c3Cl)C[C@@H]2C1 [Compound 5, (8S,9aR)-2-(2-hydroxyacetyl)-8-(2,3,4-trichloro-6-hydroxyphenyl)-hexahydro-1H-pyrido[1,2-a]pyrazin-4-one]
< 10000 nM	O=C1N[C@H](CO)CN2CC[C@@H](c3c(O)ccc(Cl)c3Cl)C[C@@H]12 [Compound 6, (3S,8R,9aS)-8-(2,3-dichloro-6-hydroxyphenyl)-3-(hydroxymethyl)-octahydropyrido[1,2-a]pyrazin-1-one]
< 10000 nM	C[C@@H]1C(=O)N2CC[C@@H](c3c(O)ccc(Cl)c3Cl)C[C@H]2CN1C(=O)CO [Compound 12, (3R,8R,9aS)-8-(2,3-dichloro-6-hydroxyphenyl)-2-(2-hydroxyacetyl)-3-methyloctahydro-4H-pyrido[1,2-a]pyrazin-4-one]
< 10000 nM	O=C1N[C@H](CO)CN2CC[C@H](c3c(O)ccc(Cl)c3Cl)C[C@H]12 [Compound 19, (3S,8S,9aR)-8-(2,3-dichloro-6-hydroxyphenyl)-3-(hydroxymethyl)-octahydropyrido[1,2-a]pyrazin-1-one]
< 1000 nM	C[C@H](CO)C(=O)N1CC(=O)N2CC[C@H](c3c(O)ccc(Cl)c3Cl)C[C@@H]2C1 [Compound 20, (8S,9aR)-8-(2,3-dichloro-6-hydroxyphenyl)-2-((R)-3-hydroxy-2-methylpropanoyl)octahydro-4H-pyrido[1,2-a]pyrazin-4-one]
< 1000 nM	CN(C)C(=O)N1CC(=O)N2C[C@@H](c3c(O)ccc(Cl)c3Cl)C[C@H]2C1 [Compound 30, (7R,8aS)-7-(2,3-dichloro-6-hydroxyphenyl)-N,N-dimethyl-4-oxohexahydropyrrolo[1,2-a]pyrazine-2(1H)-carboxamide]
< 1000 nM	CC(C)(O)C(=O)N1CC(=O)N2CC[C@@H](c3c(O)ccc(Cl)c3Cl)C[C@H]2C1 [Compound 31, (8R,9aS)-8-(2,3-dichloro-6-hydroxyphenyl)-2-(2-hydroxy-2-methylpropanoyl)octahydro-4H-pyrido[1,2-a]pyrazin-4-one]
< 1000 nM	O=C1[C@@H](CO)NC[C@H]2C[C@@H](c3c(O)ccc(Cl)c3Cl)CCN12 [Compound 36, (3R,8S,9aR)-8-(2,3-dichloro-6-hydroxyphenyl)-3-(hydroxymethyl)-octahydropyrido[1,2-a]pyrazin-4-one]
< 1000 nM	O=C1CNC[C@H]2C[C@@H](c3c(O)ccc(Cl)c3Cl)CCN12 [Compound 39]
< 1000 nM	O=C(CO)N1CC(=O)N2CC[C@H](c3c(O)ccc(Cl)c3Cl)C[C@@H]2C1 [Compound 48, (8S,9aR)-8-(2,3-dichloro-6-hydroxyphenyl)-2-(2-hydroxyacetyl)-hexahydro-1H-pyrido[1,2-a]pyrazin-4-one]
< 1000 nM	O=C([C@@H](O)CO)N1CC(=O)N2CC[C@H](c3c(O)ccc(Cl)c3Cl)C[C@@H]2C1 [Compound 51, (8S,9aR)-8-(2,3-dichloro-6-hydroxyphenyl)-2-[(2S)-2,3-dihydroxypropanoyl]-hexahydro-1H-pyrido[1,2-a]pyrazin-4-one]
< 1000 nM	C[C@@H](O)CC(=O)N1CC(=O)N2C[C@@H](c3c(O)ccc(Cl)c3Cl)C[C@H]2C1 [Compound 53, (7R,8aS)-7-(2,3-dichloro-6-hydroxyphenyl)-2-[(3R)-3-hydroxybutanoyl]-hexahydropyrrolo[1,2-a]pyrazin-4-one]
< 1000 nM	CO[C@@H](CO)C(=O)N1CC(=O)N2CC[C@@H](c3c(O)ccc(Cl)c3Cl)C[C@H]2C1 [Compound 56, (8R,9aS)-8-(2,3-dichloro-6-hydroxyphenyl)-2-[(2S)-3-hydroxy-2-methoxypropanoyl]-hexahydro-1H-pyrido[1,2-a]pyrazin-4-one]
< 1000 nM	O=C(CCO)N1CC(=O)N2CC[C@H](c3c(O)ccc(Cl)c3Cl)C[C@@H]2C1 [Compound 58, (8S,9aR)-8-(2,3-dichloro-6-hydroxyphenyl)-2-(3-hydroxy-propanoyl)octahydro-4H-pyrido[1,2-a]pyrazin-4-one]
< 1000 nM	C[C@H]1C(=O)N2C[C@@H](c3c(O)ccc(Cl)c3Cl)C[C@H]2CN1C(=O)CO [Compound 60, (3S,7R,8aS)-7-(2,3-dichloro-6-hydroxyphenyl)-2-(2-hydroxyacetyl)-3-methyl-hexahydropyrrolo[1,2-a]pyrazin-4-one]

same assay, conditions: Kv1.3 potassium channel, whole-cell patch clamp

IC50	SMILES
< 1000 nM	O=C1CN(C2CC[C@H](O)[C@@H]2O)C[C@@H]2C[C@H](c3c(O)ccc(Cl)c3Cl)CN12 (relative stereo) [Compound 135, (7R,8aS)-7-(2,3-dichloro-6-hydroxyphenyl)-2-[(2R,3S)-rel-2,3-dihydroxycyclopentyl]-hexahydropyrrolo [1,2-a]pyrazin-4-one]
< 1000 nM	O=C1C[C@@H](O)[C@@H](O)[C@@H]2C[C@H](c3c(O)ccc(Cl)c3Cl)CN12 (relative stereo) [Compound 224, (7R,8S)-rel-(2R, 8aS)-2-(2,3-dichloro-6-hydroxyphenyl)-7,8-dihydroxy-hexahydro-1H-indolizin-5-one]
< 1000 nM	O=C1C[C@@H](c2cc[nH]n2)C[C@@H]2C[C@H](c3c(O)ccc(Cl)c3Cl)CN12 (single isomer, unassigned) [Compound 213]
< 10000 nM	O=C1C[C@H](c2cc[nH]n2)C[C@@H]2C[C@H](c3c(O)ccc(Cl)c3Cl)CN12 (single isomer, unassigned) [Compound 214]
< 1000 nM	O=C1CC[C@@H](O)[C@@H]2C[C@H](c3c(O)ccc(Cl)c3Cl)CN12 (single isomer, unassigned) [Compound 227]
< 1000 nM	N#C[C@@H]1CC(=O)N2C[C@@H](c3c(O)ccc(Cl)c3Cl)C[C@H]2C1 (single isomer, unassigned) [Compound 228]
< 1000 nM	NC(=O)[C@@H]1CC(=O)N2C[C@@H](c3c(O)ccc(Cl)c3Cl)C[C@H]2C1 (single isomer, unassigned) [Compound 230]
< 1000 nM	O=C(NCCO)[C@H]1CC(=O)N2C[C@@H](c3c(O)ccc(Cl)c3Cl)C[C@H]2C1 (single isomer, unassigned) [Compound 233]
< 1000 nM	O=C1[C@@H](O)C[C@@H]2C[C@H](c3c(O)ccc(Cl)c3Cl)CN12 (single isomer, unassigned) [Compound 245]
< 1000 nM	O=C1[C@H](O)C[C@@H]2C[C@H](c3c(O)ccc(Cl)c3Cl)CN12 (single isomer, unassigned) [Compound 246]
< 1000 nM	N[C@@H]1C[C@@H]2C[C@H](c3c(O)ccc(Cl)c3Cl)CN2C1=O (single isomer, unassigned) [Compound 249]
< 1000 nM	CC(C)(O)[C@H]1OC(=O)N2C[C@@H](c3c(O)ccc(Cl)c3Cl)C[C@@H]12 (single isomer, unassigned) [Compound 255]
< 10000 nM	C[C@@H]1[C@@H]2C[C@H](c3c(O)ccc(Cl)c3Cl)CCN2C(=O)CN1C(=O)CO (single isomer, unassigned; isomer 1) [Compound 83]
< 1000 nM	C[C@@H]1[C@@H]2C[C@H](c3c(O)ccc(Cl)c3Cl)CN2C(=O)CN1C(=O)CO (single isomer, unassigned; isomer 1) [Compound 87]
